Test results from patent US11365185B2, “Lysophosphatidic acid receptor 1 (LPAR1) inhibitor compounds” (Eli Lilly and Company, priority 2017, dated 2022).
Counter-ions that a name gives are not always drawn.

Key:
[1] = molecular target: T1, LPAR1 (Homo sapiens (Human), UniProt Q92633); experiment: LPAR1 Calcium Flux Assay; assay type: cell-based; conditions: U937 cells overexpressing human LPAR1, LPA-stimulated calcium, FLIPR
Procedure: LPAR1 Calcium Flux Assays
(§1) A cDNA encoding the human LPAR1 receptor is synthesized and cloned into pDNA3 expression plasmid. The plasmid is transfected in U937 cells using Lipofectamine 2000 (Invitrogen Corp., USA). Clones stably expressing human LPAR1 are selected using puromycin and identified as cells that show Ca-influx in response to LPA.
U937 cells overexpressing human LPAR1 are seeded at 100,000 cells per well in a 96-well fibronectin (10 ug/ml) coated plate in 60 μl of assay buffer (HBSS containing 20 mM HEPES and 0.2% BSA) and then incubated for 60 minutes. Then 50 μl of a calcium indicator dye (Fluo-4 NW, Molecular Probes) are added to each well and incubation continued for 30 minutes at 37° C. and then 30 minutes at room temperature. 50 μl of test compounds in 4% DMSO are added to the cells and incubation continued at room temperature for 40 minutes. Cells are the stimulated by the addition of 50 μl of 128 nM LPA and intracellular calcium is measured using the FLIPR TETRA (Molecular Devices). IC50 values are determined using “Genedata Screener” analysis tool.
Target sequence in this assay (Q92633 whole entry): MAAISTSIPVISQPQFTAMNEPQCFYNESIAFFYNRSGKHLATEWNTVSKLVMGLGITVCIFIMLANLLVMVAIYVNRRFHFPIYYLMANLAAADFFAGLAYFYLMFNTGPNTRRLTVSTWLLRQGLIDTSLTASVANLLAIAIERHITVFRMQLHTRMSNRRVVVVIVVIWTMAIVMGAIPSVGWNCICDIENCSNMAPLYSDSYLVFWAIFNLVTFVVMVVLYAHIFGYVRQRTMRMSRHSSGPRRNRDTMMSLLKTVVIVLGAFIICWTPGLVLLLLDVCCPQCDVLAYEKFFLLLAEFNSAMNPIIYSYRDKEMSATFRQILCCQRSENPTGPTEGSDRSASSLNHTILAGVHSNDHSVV

[2] = molecular target: human LPAR3 (Homo sapiens (Human), UniProt Q9UBY5); experiment: LPAR3 Calcium Flux Assay; assay type: cell-based; conditions: U2OS cells overexpressing human LPAR3, LPA-stimulated calcium, FLIPR
human LPAR3, sequence (Q9UBY5 whole entry): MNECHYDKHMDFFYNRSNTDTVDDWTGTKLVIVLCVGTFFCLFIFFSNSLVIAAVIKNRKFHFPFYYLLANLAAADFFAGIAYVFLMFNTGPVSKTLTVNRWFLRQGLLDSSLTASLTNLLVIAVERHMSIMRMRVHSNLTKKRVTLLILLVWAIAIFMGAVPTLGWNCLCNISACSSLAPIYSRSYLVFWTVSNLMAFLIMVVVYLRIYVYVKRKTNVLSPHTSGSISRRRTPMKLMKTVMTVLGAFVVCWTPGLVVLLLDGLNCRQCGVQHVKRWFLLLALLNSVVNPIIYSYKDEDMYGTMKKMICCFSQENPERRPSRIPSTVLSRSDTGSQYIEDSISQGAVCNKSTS
Procedure: LPAR3 Calcium Flux Assays
as §1, with “LPAR3” for “LPAR1”, “U2OS” for “U937”, “neomycin” for “puromycin”
U2OS cells overexpressing human LPAR3 are seeded at 20,000-40,000 cells per well in a 96-well poly-D-lysine coated plate one day before the assay. Prior to the assay, the cells are washed once with assay buffer (HBSS containing 20 mM HEPES and 0.2% BSA) and then incubated in 50 μl of assay buffer for 60 minutes. Then 50 μl of a calcium indicator dye (Fluo-4 NW, Molecular Probes) are added to each well and incubation is continued for 30 minutes at 37° C. and then 30 minutes at room temperature. 50 μl of test compounds in 4% DMSO are added to the cells and incubation continued at room temperature for 40 minutes. Cells are stimulated by the addition of 50 μl of 128 nM LPA and intracellular calcium is measured using the FLIPR TETRA (Molecular Devices). IC50 values are determined using “Genedata Screener” analysis tool.

[3] = molecular target: T1, LPAR1; experiment: LPAR1 Cytokine Release Assay (IL-6, MG63 cells); assay type: cell-based; conditions: LPA-stimulated IL-6 levels, 24 hours, ELISA
Procedure: LPAR1 Cytokine Release Assay
Human MG63 cells are seeded at 20,000 per well in 96-well plates and incubated in MEM medium. One day later, the cell culture medium is removed and 60 μl of test compounds are added to each well. 30 minutes later, 60 μl of LPA (10 μM) are added to each well. 24 hours later, 50 μl of supernatant from each well are taken and IL-6 levels are measure by using ELISA kit (R&D Systems, Cat. No. D6050). IC50 values are determined using “Genedata Screener” analysis tool.
Target sequence in this assay (Q92633 whole entry): as the sequence (Q92633 whole entry) above

[4] = test system: Human hepatic stellate cell line LX-2; experiment: Calcium Influx of Human Hepatic Stellate Cells (LX-2); assay type: cell-based; conditions: LX-2 cells, LPA-stimulated calcium influx
Procedure: Calcium Influx of Human Hepatic Stellate Cells (LX-2)
Human hepatic stellate cell line LX-2 is purchased from EMD Millpore. LX-2 cells are seeded at 20,000-40,000 cells per well in a 96-well poly-D-lysine coated plate one day before the assay. Prior to the assay, the cells are washed once with assay buffer (HBSS containing 20 mM HEPES and 0.2% BSA) and then incubated in 50 μl of assay buffer for 60 minutes. Then 50 μl of a calcium indicator dye (Fluo-4 NW, Molecular Probes) are added to each well and incubation is continued for 30 minutes at 37° C. and then 30 minutes at room temperature. 50 μl of test compounds in 4% DMSO are added to the cells and incubation is continued at room temperature for 40 minutes. Cells are stimulated by the addition of 50 μl of 128 nM LPA and intracellular calcium is measured using the FLIPR TETRA (Molecular Devices). IC50 values are determined using “Genedata Screener” analysis tool.

[5] = molecular target: T1, LPAR1; experiment: LPAR1 Membrane Binding Assay; conditions: membrane containing LPAR1, radio labeled ligand, SPA
Procedure: LPAR1 Membrane Binding Assay
The ability of a compound to inhibit binding of a ligand (1-(4′-(4-(((benzyloxy)carbonyl)amino)-3-methylisoxazol-5-yl)-[1,1′-biphenyl]-4-yl)cyclopropane-1-carboxylic acid) to LPAR1 is assessed via a membrane binding assay. Membrane containing LPAR1 was purchased from Cerep (Cat. No. 290312RB). Prior to the assay, membrane is thawed and homogenized for 15 seconds. 50 μl of test compounds and 50 μl of radio labeled ligand are added to the 96-well plates and then 50 of μl membrane (50-400 ug/ml) are added. Next, 50 μl of SPA PVT WGA beads are added (1-5 mg/ml) and the plates are sealed and incubated at room temperate for 5 minutes. Radio activity is measured by Beta Counter and IC50 values are determined using “Genedata Screener” analysis tool.
Target sequence in this assay (Q92633 whole entry, species assumed): as the sequence (Q92633 whole entry) above

[6] = Rodent Pharmacokinetics - Rat PK; assay type: in vivo, male Sprague-Dawley rats; conditions: male, Sprague-Dawley, plasma
Procedure: (§2) The pharmacokinetics of compounds are determined in male Sprague-Dawley rats or C57 mice. The rats are administered a single 1 mg/kg intravenous (IV) and 10 mg/kg oral gavage (PO) dose. The vehicles are 20% Captisol w/v in 25 mM NaPO4 buffer, pH8 and 1% hydroxyethylcellulose/0.25% polysorbate 80 and 0.05% antifoam 1510-US in distilled water for the intravenous and oral dose, respectively. Blood samples are collected at predose (PO only), 0.08 (IV only), 0.25, 0.5, 1, 2, 4, 8, 12 and 24 h after initiation of compound administration. Blood samples are centrifuged to obtain plasma. The plasma samples are analyzed by LC-MS/MS to determine compound concentrations.

[7] = test system: Male C57BL/6J mice; experiment: Mouse Intravenous LPA-Induced Histamine and Eicosanoids Release; assay type: in vivo; conditions: 10 mg/kg orally 2 hours before intravenous LPA; plasma
Procedure: Mouse Intravenous LPA-Induced Histamine and Eicosanoids Release
A mouse intravenous LPA-induced histamine and eicosanoids release model is utilized to determine the in vivo potency of the compounds of the present invention. Male C57BL/6J mice weighing 20-25 grams are given free access to standard mouse chow and water. LPA is dissolved in 0.1% fatty acid-free bovine serum albumin to generate solution at 2 mg/mL. Test compounds are formulated in 0.5% methyl cellulose plus 0.25% Tween 80 to generate required concentrations one day before the experiment and stored in a refrigerator until use. Animals are dosed orally with test compounds at 10 ml/kg 2 hours before the intravenous LPA dosing (300 ug per mouse) with 30 gauge needles through tail vain. Two hours after LPA dosing the animals are euthanized by CO2 suffocate. Blood will be collected by cardiac puncture. Blood samples are kept on ice for more than 5 minutes and centrifuged at 4000 rpm for 10 minutes at 4° C. to generate supernatant plasma. The plasma histamine, methylimidazol acetic acid and eicosanoids levels are measured by LC/MS.

[8] = Rodent Pharmacokinetics - Mouse PK; assay type: in vivo, C57 mice; conditions: C57, plasma; for AUC / bioavailability: 10 mg/kg; for AUC: PO; for clearance / Vd: intravenous; for Vd: read-out: Vdss; for bioavailability: oral
Procedure: as §2

Compound	IC50 [1] [nM]	IC50 [2] [nM]	IC50 [3] [nM]	IC50 [4] [nM]	Ki [5] [nM]	AUC ([6]; 10 mg/kg, PO) [µM·h]	clearance ([6]; intravenous, 1 mg/kg) [mL/min/kg]	Vd ([6]; intravenous, 1 mg/kg, read-out: Vdss) [L/kg]	bioavailability ([6]; oral, 10 mg/kg) [%]	AUC [8] [µM·h]	clearance [8] [mL/min/kg]	Vd [8] [L/kg]	bioavailability [8] [%]	% of inhibition, 9,10-cis epoxide of linoleic acid [7] [%]	% of inhibition, 12-hydroxyeicosatetraenoic acid [7] [%]	% of inhibition, methylimidazoleacetic acid [7] [%]
CC(C)Cc1cncc(Nc2c(-c3ccc(-c4ccc(C5(C(=O)O)CC5)cc4)cc3)cnn2C)n1 [Example 17, 1-[4-[4-[5-[(6-isobutylpyrazin-2-yl)amino]-1-methyl-pyrazol-4-yl]phenyl]phenyl]cyclopropanecarboxylic Acid]	54.7	1830	5.81	23.1	–	–	–	–	–	–	–	–	–	–	–	–
Cn1ncc(-c2ccc(-c3ccc(C4(C(=O)O)CC4)cc3)cn2)c1Nc1cncc(C(F)(F)F)n1 [Example 21, 1-[4-[6-[1-methyl-5-[[6-(trifluoromethyl)pyrazin-2-yl]amino]pyrazol-4-yl]-3-pyridyl]phenyl]cyclopropanecarboxylic Acid]	36.3	1610	8.81	14.1	27.6	–	–	–	–	16.3	4.99	1.46	24.8	–	–	–
CC(C)c1cncc(Nc2c(-c3ccc(-c4ccc(C5(C(=O)O)CC5)nc4)cn3)cnn2C)n1 [Example 23, Ammonia; 1-[5-[6-[5-[(6-isopropylpyrazin-2-yl)amino]-1-methyl-pyrazol-4-yl]-3-pyridyl]-2-pyridyl]cyclopropanecarboxylic Acid]	111	> 10000	183	21.5	–	–	–	–	–	–	–	–	–	–	–	–
CC(C)c1cncc(Nc2c(-c3ccc(-c4ccc(C5(C(=O)O)CC5)cn4)cn3)cnn2C)n1 [Example 24, 1-[6-[6-[5-[(6-isopropylpyrazin-2-yl)amino]-1-methyl-pyrazol-4-yl]-3-pyridyl]-3-pyridyl]cyclopropanecarboxylic Acid; Dihydrochloride]	48	2760	–	15.3	46.2	–	–	–	–	–	–	–	–	–	–	–
Cn1ncc(-c2ccc(-c3ccc(C4(C(=O)O)CC4)cc3)cc2)c1Nc1cncc(C2CC2)n1 [Example 25, Ammonium 1-[4-[4-[5-[(6-cyclopropylpyrazin-2-yl)amino]-1-methyl-pyrazol-4-yl]phenyl]phenyl]cyclopropanecarboxylate]	52.9	> 10000	–	24.2	30.8	–	–	–	–	–	–	–	–	–	–	–

Stronger by IC50 [1], values ahead:

IC50 [1] [nM]	IC50 [2] [nM]	IC50 [3] [nM]	IC50 [4] [nM]	Ki [5] [nM]	AUC ([6]; 10 mg/kg, PO) [µM·h]	clearance ([6]; intravenous, 1 mg/kg) [mL/min/kg]	Vd ([6]; intravenous, 1 mg/kg, read-out: Vdss) [L/kg]	bioavailability ([6]; oral, 10 mg/kg) [%]	AUC [8] [µM·h]	clearance [8] [mL/min/kg]	Vd [8] [L/kg]	bioavailability [8] [%]	Compound	% of inhibition, 9,10-cis epoxide of linoleic acid [7] [%]	% of inhibition, 12-hydroxyeicosatetraenoic acid [7] [%]	% of inhibition, methylimidazoleacetic acid [7] [%]
24	2360	6.67	7.94	24.5	–	–	–	–	–	–	–	–	CC(C)c1cncc(Nc2c(-c3ncc(-c4ccc(C5(C(=O)O)CC5)cc4)cn3)cnn2C)n1 [Example 18, 1-[4-[2-[5-[(6-isopropylpyrazin-2-yl)amino]-1-methyl-pyrazol-4-yl]pyrimidin-5-yl]phenyl]cyclopropanecarboxylic acid]	–	–	–
29.3	341	3.95	12	12.7	70.9	2.94	0.721	57.5	–	–	–	–	CC(C)Oc1cncc(Nc2c(-c3ccc(-c4ccc(C5(C(=O)O)CC5)cc4)cn3)cnn2C)n1.Cl [Example 20, 1-[4-[6-[5-[(6-isopropoxypyrazin-2-yl)amino]-1-methyl-pyrazol-4-yl]-3-pyridyl]phenyl]cyclopropanecarboxylic Acid; Hydrochloride]	83.4 ± 6.4	68.8 ± 6.0	103.5 ± 0.6
30.9	1170	11.2	10.4	–	–	–	–	–	–	–	–	–	Cc1cc(C2(C(=O)O)CC2)ccc1-c1ccc(-c2cnn(C)c2Nc2cncc(C(C)C)n2)nc1 [Example 22, 1-[4-[6-[5-[(6-isopropylpyrazin-2-yl)amino]-1-methyl-pyrazol-4-yl]-3-pyridyl]-3-methyl-phenyl]cyclopropanecarboxylic Acid; Hydrochloride]	–	–	–
23.6	> 10000	4.79	13.1	18.8	–	–	–	–	9.06	2	2	30	CC(C)c1cncc(Nc2c(-c3ccc(-c4ccc(C5(C(=O)O)CC5)cc4)cc3)cnn2C)n1 [Example 26, 1-[4-[4-[5-[(6-isopropylpyrazin-2-yl)amino]-1-methyl-pyrazol-4-yl]phenyl]phenyl]cyclopropanecarboxylic Acid]	–	–	–
